Measured values as given in the NIST ThermoML archive (doi:10.1016/j.jct.2016.10.023).
± gives the expanded uncertainty stated by the source.

Experiment: xn = mol fraction of the nth substance listed
Details: Constant-volume piezometry

CCCCC [pentane] + CCCO
Details | mass density [kg/m3]
553.15 K, 10864 kPa, Fluid (supercritical or subcritical phases), x1 = 0.9 | 311.86 ± 1.6
553.15 K, 11147 kPa, Fluid (supercritical or subcritical phases), x1 = 0.2 | 390.67 ± 2
553.15 K, 11334 kPa, Fluid (supercritical or subcritical phases), x1 = 0.8 | 314.89 ± 1.6
553.15 K, 12137 kPa, Fluid (supercritical or subcritical phases), x1 = 0.9 | 333.53 ± 1.7
553.15 K, 12374 kPa, Fluid (supercritical or subcritical phases), x1 = 0.8 | 333.35 ± 1.7
553.15 K, 13032 kPa, Fluid (supercritical or subcritical phases), x1 = 0.2 | 418.04 ± 2.1
553.15 K, 13118 kPa, Fluid (supercritical or subcritical phases), x1 = 0.8 | 344.85 ± 1.7
553.15 K, 13951 kPa, Fluid (supercritical or subcritical phases), x1 = 0.9 | 353.59 ± 1.8
553.15 K, 14669 kPa, Fluid (supercritical or subcritical phases), x1 = 0.8 | 361.39 ± 1.8
553.15 K, 18451 kPa, Fluid (supercritical or subcritical phases), x1 = 0.2 | 469.6 ± 2.4
553.15 K, 20863 kPa, Fluid (supercritical or subcritical phases), x1 = 0.9 | 406.66 ± 2
553.15 K, 21933 kPa, Fluid (supercritical or subcritical phases), x1 = 0.8 | 417.56 ± 2.1
553.15 K, 25921 kPa, Fluid (supercritical or subcritical phases), x1 = 0.2 | 508.72 ± 2.6
553.15 K, 34331 kPa, Fluid (supercritical or subcritical phases), x1 = 0.8 | 465.95 ± 2.4
553.15 K, 37494 kPa, Fluid (supercritical or subcritical phases), x1 = 0.2 | 546.06 ± 2.8
563.15 K, 1429 kPa, Gas, x1 = 0.8 | 22.48 ± 0.07
563.15 K, 1719 kPa, Gas, x1 = 0.2 | 24.88 ± 0.08
563.15 K, 2200 kPa, Gas, x1 = 0.8 | 36.62 ± 0.11
563.15 K, 3253 kPa, Gas, x1 = 0.8 | 58.3 ± 0.18
563.15 K, 3644 kPa, Gas, x1 = 0.2 | 52.9 ± 0.16
563.15 K, 3914 kPa, Fluid (supercritical or subcritical phases), x1 = 0.8 | 73.65 ± 0.37
563.15 K, 4188 kPa, Fluid (supercritical or subcritical phases), x1 = 0.9 | 83.22 ± 0.42
563.15 K, 4893 kPa, Fluid (supercritical or subcritical phases), x1 = 0.2 | 91.24 ± 0.46
563.15 K, 5140 kPa, Fluid (supercritical or subcritical phases), x1 = 0.8 | 106.2 ± 0.54
563.15 K, 5522 kPa, Fluid (supercritical or subcritical phases), x1 = 0.9 | 123.11 ± 0.62
563.15 K, 5594 kPa, Fluid (supercritical or subcritical phases), x1 = 0.2 | 114.13 ± 0.58
563.15 K, 5876 kPa, Fluid (supercritical or subcritical phases), x1 = 0.9 | 133.86 ± 0.68
563.15 K, 6362 kPa, Fluid (supercritical or subcritical phases), x1 = 0.8 | 140.03 ± 0.71
563.15 K, 6504 kPa, Fluid (supercritical or subcritical phases), x1 = 0.2 | 150.05 ± 0.77
563.15 K, 6690 kPa, Fluid (supercritical or subcritical phases), x1 = 0.9 | 163.64 ± 0.83
563.15 K, 6728 kPa, Fluid (supercritical or subcritical phases), x1 = 0.8 | 155.74 ± 0.79
563.15 K, 6993 kPa, Fluid (supercritical or subcritical phases), x1 = 0.2 | 175.27 ± 0.9
563.15 K, 7120 kPa, Fluid (supercritical or subcritical phases), x1 = 0.8 | 169.45 ± 0.86
563.15 K, 7244 kPa, Fluid (supercritical or subcritical phases), x1 = 0.2 | 189.26 ± 0.98
563.15 K, 7275 kPa, Fluid (supercritical or subcritical phases), x1 = 0.8 | 175.68 ± 0.9
563.15 K, 7389 kPa, Fluid (supercritical or subcritical phases), x1 = 0.8 | 180.47 ± 0.92
563.15 K, 7397 kPa, Fluid (supercritical or subcritical phases), x1 = 0.9 | 189.08 ± 0.96
563.15 K, 7718 kPa, Fluid (supercritical or subcritical phases), x1 = 0.2 | 219.66 ± 1.1
563.15 K, 7728 kPa, Fluid (supercritical or subcritical phases), x1 = 0.8 | 192.78 ± 0.98
563.15 K, 7738 kPa, Fluid (supercritical or subcritical phases), x1 = 0.9 | 201.98 ± 1
563.15 K, 8148 kPa, Fluid (supercritical or subcritical phases), x1 = 0.2 | 244.99 ± 1.3
563.15 K, 8285 kPa, Fluid (supercritical or subcritical phases), x1 = 0.9 | 220.25 ± 1.1
563.15 K, 8310 kPa, Fluid (supercritical or subcritical phases), x1 = 0.8 | 213.43 ± 1.1
563.15 K, 8376 kPa, Fluid (supercritical or subcritical phases), x1 = 0.2 | 258.68 ± 1.3
563.15 K, 8439 kPa, Fluid (supercritical or subcritical phases), x1 = 0.2 | 262.38 ± 1.3
563.15 K, 8483 kPa, Fluid (supercritical or subcritical phases), x1 = 0.8 | 219.19 ± 1.1
563.15 K, 8609 kPa, Fluid (supercritical or subcritical phases), x1 = 0.2 | 271.82 ± 1.4
563.15 K, 8640 kPa, Fluid (supercritical or subcritical phases), x1 = 0.9 | 232.6 ± 1.2
563.15 K, 8748 kPa, Fluid (supercritical or subcritical phases), x1 = 0.9 | 236.06 ± 1.2
563.15 K, 8876 kPa, Fluid (supercritical or subcritical phases), x1 = 0.9 | 240.45 ± 1.2
563.15 K, 8904 kPa, Fluid (supercritical or subcritical phases), x1 = 0.8 | 234.24 ± 1.2
563.15 K, 8945 kPa, Fluid (supercritical or subcritical phases), x1 = 0.2 | 289.96 ± 1.5
563.15 K, 8965 kPa, Fluid (supercritical or subcritical phases), x1 = 0.9 | 243.76 ± 1.2
563.15 K, 9207 kPa, Fluid (supercritical or subcritical phases), x1 = 0.8 | 244.86 ± 1.2
563.15 K, 9294 kPa, Fluid (supercritical or subcritical phases), x1 = 0.2 | 306.21 ± 1.6
563.15 K, 9393 kPa, Fluid (supercritical or subcritical phases), x1 = 0.2 | 310.43 ± 1.6
563.15 K, 9613 kPa, Fluid (supercritical or subcritical phases), x1 = 0.2 | 318.13 ± 1.6
563.15 K, 9648 kPa, Fluid (supercritical or subcritical phases), x1 = 0.8 | 258.06 ± 1.3
563.15 K, 10165 kPa, Fluid (supercritical or subcritical phases), x1 = 0.8 | 271.99 ± 1.4
563.15 K, 10334 kPa, Fluid (supercritical or subcritical phases), x1 = 0.2 | 340.56 ± 1.7
563.15 K, 10363 kPa, Fluid (supercritical or subcritical phases), x1 = 0.9 | 281.45 ± 1.4
563.15 K, 10433 kPa, Fluid (supercritical or subcritical phases), x1 = 0.2 | 343.35 ± 1.7
563.15 K, 10875 kPa, Fluid (supercritical or subcritical phases), x1 = 0.8 | 287.81 ± 1.4
563.15 K, 11127 kPa, Fluid (supercritical or subcritical phases), x1 = 0.9 | 301.08 ± 1.5
563.15 K, 11345 kPa, Fluid (supercritical or subcritical phases), x1 = 0.8 | 298.6 ± 1.5
563.15 K, 11776 kPa, Fluid (supercritical or subcritical phases), x1 = 0.9 | 311.7 ± 1.6
563.15 K, 11942 kPa, Fluid (supercritical or subcritical phases), x1 = 0.2 | 377.85 ± 1.9
563.15 K, 12196 kPa, Fluid (supercritical or subcritical phases), x1 = 0.2 | 382.64 ± 1.9
563.15 K, 12285 kPa, Fluid (supercritical or subcritical phases), x1 = 0.8 | 314.73 ± 1.6
563.15 K, 12687 kPa, Fluid (supercritical or subcritical phases), x1 = 0.2 | 390.46 ± 2
563.15 K, 13176 kPa, Fluid (supercritical or subcritical phases), x1 = 0.9 | 333.36 ± 1.7
563.15 K, 13452 kPa, Fluid (supercritical or subcritical phases), x1 = 0.8 | 333.18 ± 1.7
563.15 K, 14255 kPa, Fluid (supercritical or subcritical phases), x1 = 0.8 | 344.68 ± 1.7
563.15 K, 14845 kPa, Fluid (supercritical or subcritical phases), x1 = 0.2 | 417.82 ± 2.1
